Source: PubChem BioAssay (NCI)
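Each compound was tested at five concentrations against cells in 96-well plates for 48 hours. The concentration for 50% growth inhibition is given as GI50. TGI marks complete inhibition of growth.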

How the values were obtained:
Experiment in all cases: NCI anticancer screen, dose series, 48 h
[1] = tested on: RXF 393 renal
[2] = tested on: MALME-3M melanoma
[3] = tested on: MDA-MB-231 breast
[4] = tested on: COLO 205 colon
[5] = tested on: SNB-75 CNS
[6] = tested on: SF-268 CNS
[7] = tested on: MDA-MB-435
[8] = tested on: SK-MEL-2 melanoma
[9] = tested on: HCC-2998 colon
[10] = tested on: SW-620 colon
[11] = tested on: SK-MEL-28 melanoma
[12] = tested on: NCI-H460 lung
[13] = tested on: ACHN renal
[14] = tested on: KM12 colon
[15] = tested on: NCI-H23 lung
[16] = tested on: OVCAR-4 ovarian
[17] = tested on: HL-60(TB) leukemia
[18] = tested on: MCF7 breast
[19] = tested on: A498 renal
[20] = tested on: OVCAR-8 ovarian
[21] = tested on: CCRF-CEM leukemia
[22] = tested on: HOP-62 NSCLC
[23] = tested on: A549 NSCLC
[24] = tested on: HT29 colon
[25] = tested on: OVCAR-5 ovarian
[26] = tested on: EKVX NSCLC
[27] = tested on: NCI/ADR-RES ovarian
[28] = tested on: UO-31 renal
[29] = tested on: SF-539 CNS
[30] = tested on: SF-295 CNS
[31] = tested on: M14 melanoma
[32] = tested on: DU-145 prostate
[33] = tested on: 786-0 renal
[34] = tested on: OVCAR-3 ovarian
[35] = tested on: T-47D breast
[36] = tested on: LOX IMVI melanoma
[37] = tested on: HS 578T breast
[38] = tested on: K-562 leukemia
[39] = tested on: NCI-H226 lung
[40] = tested on: HCT-15 colon
[41] = tested on: SK-MEL-5 melanoma
[42] = tested on: SR leukemia
[43] = tested on: TK-10 renal
[44] = tested on: MOLT-4 leukemia
[45] = tested on: SN12C renal
[46] = tested on: CAKI-1 renal
[47] = tested on: U251 CNS
[48] = tested on: BT-549 breast
[49] = tested on: PC-3 prostate
[50] = tested on: HCT-116 colon
[51] = tested on: UACC-62 melanoma
[52] = tested on: SNB-19 CNS
[53] = tested on: UACC-257 melanoma
[54] = tested on: IGROV1 ovarian
[55] = tested on: NCI-H522 lung
[56] = tested on: RPMI-8226 leukemia
[57] = tested on: HOP-92 NSCLC
[58] = tested on: SK-OV-3 ovarian

Compound C=C(C)[C@@H]1C/C=C(/CO)CC[C@H]2O[C@]2(C)CC/C=C(\C)CC1 has a GI50 [1] of 18.3 µM, a TGI [1] of 33.4 µM and a GI50 [2] of 12.9 µM. The TGI [2] was 28.5 µM, the GI50 [3] was 10.7 µM and the TGI [3] was 29.7 µM. The GI50 [4] was 13.2 µM, the TGI [4] was 26.7 µM and the GI50 [5] was 12.1 µM. For the same compound, the TGI [5] was 31.3 µM, the GI50 [6] was 19.9 µM and the TGI [6] was 38.2 µM. The GI50 [7] was 13.5 µM, the TGI [7] was 29.2 µM and the GI50 [8] was 15.3 µM. The TGI [8] was 31.3 µM, the GI50 [9] was 19.8 µM and the TGI [9] was 40.4 µM. It also gave a GI50 [10] of 26.3 µM, a TGI [10] of 61.5 µM and a GI50 [11] of 14.3 µM. The TGI [11] was 32.1 µM, the GI50 [12] was 11.5 µM and the TGI [12] was 27 µM. The GI50 [13] was 29.5 µM, the TGI [13] was > 100 µM and the GI50 [14] was 16.1 µM. For the same compound, the TGI [14] was 32.4 µM, the GI50 [15] was 20.7 µM and the TGI [15] was 66.9 µM. The GI50 [16] was 16.3 µM, the TGI [16] was 34.1 µM and the GI50 [17] was 8.12 µM. For the same compound, the TGI [17] was 24 µM, the GI50 [18] was 15.7 µM and the TGI [18] was 31.8 µM. It also gave a GI50 [19] of 10.4 µM, a TGI [19] of 24.3 µM and a GI50 [20] of 24 µM. The TGI [20] was 58.4 µM, the GI50 [21] was 12.5 µM and the TGI [21] was 34.8 µM. The GI50 [22] was 15 µM, the TGI [22] was 34.4 µM and the GI50 [23] was 16.1 µM. For the same compound, the TGI [23] was 50.3 µM, the GI50 [24] was 14.5 µM and the TGI [24] was 31.6 µM. The GI50 [25] was 24.7 µM, the TGI [25] was > 100 µM and the GI50 [26] was 12.9 µM. For the same compound, the TGI [26] was 36 µM, the GI50 [27] was 29.9 µM and the TGI [27] was > 100 µM. The GI50 [28] was 13.6 µM, the TGI [28] was 29.9 µM and the GI50 [29] was 18 µM. The TGI [29] was 33.7 µM, the GI50 [30] was 11.6 µM and the TGI [30] was 24.5 µM. For the same compound, the GI50 [31] was 15 µM, the TGI [31] was 29.9 µM and the GI50 [32] was 18.1 µM. The TGI [32] was 60.5 µM, the GI50 [33] was 15.4 µM and the TGI [33] was 34.2 µM. It also gave a GI50 [34] of 22.2 µM, a TGI [34] of 42.9 µM and a GI50 [35] of 17.4 µM. The TGI [35] was 47.8 µM, the GI50 [36] was 15.4 µM and the TGI [36] was 30.3 µM. It also gave a GI50 [37] of 18.2 µM, a TGI [37] of 38.7 µM and a GI50 [38] of 5.73 µM. The TGI [38] was 26.1 µM, the GI50 [39] was 19.7 µM and the TGI [39] was 43.7 µM. The GI50 [40] was 23.6 µM, the TGI [40] was 51.7 µM and the GI50 [41] was 12.7 µM. For the same compound, the TGI [41] was 25.5 µM, the GI50 [42] was 17.2 µM and the TGI [42] was 38.6 µM. The GI50 [43] was 9.74 µM, the TGI [43] was 32.8 µM and the GI50 [44] was 12.7 µM. For the same compound, the TGI [44] was 32 µM, the GI50 [45] was 14.6 µM and the TGI [45] was 29 µM. For the same compound, the GI50 [46] was 17.1 µM, the TGI [46] was 34.8 µM and the GI50 [47] was 19.9 µM. The TGI [47] was 36.2 µM, the GI50 [48] was 17.5 µM and the TGI [48] was 34.7 µM. It also gave a GI50 [49] of 11.8 µM, a TGI [49] of 30.9 µM and a GI50 [50] of 19.3 µM. For the same compound, the TGI [50] was 38.3 µM, the GI50 [51] was 15.1 µM and the TGI [51] was 35.6 µM. For the same compound, the GI50 [52] was 18 µM, the TGI [52] was 33.8 µM and the GI50 [53] was 22 µM. For the same compound, the TGI [53] was 43.6 µM, the GI50 [54] was 18.6 µM and the TGI [54] was 41.3 µM. The GI50 [55] was 16.1 µM and the TGI [55] was 32.1 µM.
For COc1ccc(OC)c(NC(=O)c2cccc(NC3=C(Cl)C(=O)N(Cc4ccccc4)C3=O)c2)c1, the GI50 [1] was > 74.6 µM, the TGI [1] was > 100 µM and the GI50 [2] was > 49.3 µM. The TGI [2] was > 86.4 µM, the GI50 [3] was > 35.7 µM and the TGI [3] was > 54.1 µM. For the same compound, the GI50 [4] was > 100 µM, the TGI [4] was > 100 µM and the GI50 [5] was > 100 µM. The TGI [5] was > 100 µM, the GI50 [6] was > 69.2 µM and the TGI [6] was > 100 µM. For the same compound, the GI50 [7] was > 64.7 µM, the TGI [7] was > 100 µM and the GI50 [56] was 15.9 µM. For the same compound, the TGI [56] was > 79 µM, the GI50 [8] was > 100 µM and the TGI [8] was > 100 µM. For the same compound, the GI50 [9] was 70.4 µM, the TGI [9] was > 100 µM and the GI50 [10] was > 100 µM. The TGI [10] was > 100 µM, the GI50 [11] was > 100 µM and the TGI [11] was > 100 µM. For the same compound, the GI50 [12] was > 58.1 µM, the TGI [12] was > 100 µM and the GI50 [13] was > 100 µM. For the same compound, the TGI [13] was > 100 µM, the GI50 [14] was > 100 µM and the TGI [14] was > 100 µM. For the same compound, the GI50 [15] was > 70.8 µM, the TGI [15] was > 100 µM and the GI50 [16] was > 100 µM. The TGI [16] was > 100 µM, the GI50 [17] was 5.82 µM and the TGI [17] was > 100 µM. The GI50 [18] was > 48.2 µM, the TGI [18] was > 100 µM and the GI50 [20] was > 76.8 µM. For the same compound, the TGI [20] was > 100 µM, the TGI [21] was > 100 µM and the GI50 [22] was > 83.5 µM. For the same compound, the TGI [22] was > 100 µM, the GI50 [23] was > 100 µM and the TGI [23] was > 100 µM. The GI50 [24] was > 100 µM, the TGI [24] was > 100 µM and the GI50 [25] was > 73 µM. The TGI [25] was > 100 µM, the GI50 [26] was 2.49 µM and the TGI [26] was 4.94 µM. For the same compound, the GI50 [27] was > 67.8 µM, the TGI [27] was > 100 µM and the GI50 [28] was > 90.3 µM. For the same compound, the TGI [28] was > 100 µM, the GI50 [29] was > 94.9 µM and the TGI [29] was > 100 µM. The GI50 [30] was > 75.3 µM, the TGI [30] was > 100 µM and the GI50 [31] was > 75 µM. The TGI [31] was > 100 µM, the GI50 [32] was 27.8 µM and the TGI [32] was > 100 µM. For the same compound, the GI50 [33] was > 96.2 µM, the TGI [33] was > 100 µM and the GI50 [57] was > 100 µM. For the same compound, the TGI [57] was > 100 µM, the GI50 [34] was > 100 µM and the TGI [34] was > 100 µM. The GI50 [35] was > 100 µM, the TGI [35] was > 100 µM and the GI50 [36] was > 100 µM. For the same compound, the TGI [36] was > 100 µM, the GI50 [37] was > 100 µM and the TGI [37] was > 100 µM. The GI50 [38] was 35.4 µM, the TGI [38] was > 100 µM and the GI50 [39] was > 67.3 µM. The TGI [39] was > 100 µM, the GI50 [40] was > 100 µM and the TGI [40] was > 100 µM. It also gave a GI50 [41] of 26.6 µM, a TGI [41] of 87.7 µM and a GI50 [42] of 7.8 µM. The TGI [42] was > 87.6 µM, the GI50 [43] was > 59.5 µM and the TGI [43] was > 100 µM. The GI50 [44] was 7.66 µM, the TGI [44] was > 100 µM and the GI50 [45] was > 58.1 µM. For the same compound, the TGI [45] was > 100 µM, the GI50 [46] was > 100 µM and the TGI [46] was > 100 µM. For the same compound, the GI50 [47] was > 100 µM, the TGI [47] was > 100 µM and the GI50 [48] was 18.3 µM. For the same compound, the TGI [48] was > 100 µM, the GI50 [49] was 38.2 µM and the TGI [49] was > 100 µM. The GI50 [50] was > 86.2 µM, the TGI [50] was > 100 µM and the GI50 [51] was > 63.1 µM. The TGI [51] was > 100 µM, the GI50 [52] was > 100 µM and the TGI [52] was > 100 µM. For the same compound, the GI50 [53] was 23.5 µM, the TGI [53] was > 100 µM and the GI50 [58] was > 100 µM. The TGI [58] was > 100 µM, the GI50 [54] was > 100 µM and the TGI [54] was > 100 µM. For the same compound, the GI50 [55] was > 100 µM and the TGI [55] was > 100 µM.
